Test results reported in US20140357713A1, “ANTIMICROBIAL COMPOUNDS AND METHODS OF USE” (NexMed Holdings, Inc., priority 2012, published 2014).
Counter-ions that a name gives are not always drawn.

What was measured:
Test in all cases: MIC assay with different strains, Example 35
Type in all cases: cell-based
[1] = test system: Pseudomonas aeruginosa (ATCC 9027)
Procedure, shortened: (§1)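 Microbial suspensions were adjusted to about 10^7 to 10^8 CFU/mL (stock), then diluted 1:200 in Mueller Hinton broth to give 10^1 to 10^6 CFU/mL test samples. After incubation, tubes were scored for turbidity as growth or no growth; where the product itself clouded the medium, aliquots were streaked on agar to confirm.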

[2] = test system: Bacillus subtilis (ATCC 6633)
Procedure, shortened: as §1

[3] = test system: Streptococcus pyogenes (ATCC 19615)
Procedure, shortened: as §1

[4] = test system: Haemophilus influenza (ATCC 19418)
Procedure, shortened: as §1

[5] = test system: Staphylococcus hominis (ATCC 27844)
Procedure, shortened: as §1

[6] = test system: Escherichia coli (ATCC 11229)
Procedure, shortened: as §1

[7] = test system: Streptococcus pneumonia (ATCC 6303)
Procedure, shortened: as §1

[8] = test system: Corynebacterium jeikeium (ATCC 43734)
Procedure, shortened: as §1

[9] = test system: Staphylococcus saprophyticus (ATCC 15305)
Procedure, shortened: as §1

[10] = test system: Klebsiella pneumonia (ATCC 11296)
Procedure, shortened: as §1

[11] = test system: Candida albicans (ATCC 10231)
Procedure, shortened: as §1

[12] = test system: Staphylococcus aureus (MRSA) (ATCC 33592)
Procedure, shortened: as §1

[13] = test system: Serratia marcescens (ATCC 14756)
Procedure, shortened: as §1

[14] = test system: Enterococcus faecalis (ATCC 19433)
Procedure, shortened: as §1

[15] = test system: Staphylococcus haemolyticus (ATCC 29970)
Procedure, shortened: as §1

[16] = test system: Proteus mirabilis (ATCC 7002)
Procedure, shortened: as §1

CCCCCCCCCCCCOC(=O)C(C)N(C)C (centres unmarked) [Nex-05, Dodecyl 2-(dimethylamino)propanoate hydrochloride]
MIC ([1]; Example 35): 1.25% | Growth/no growth ([1]; Sample Concentration 0.039%): Growth | Growth/no growth ([1]; Sample Concentration 0.078%): Growth | Growth/no growth ([1]; Sample Concentration 0.156%): Growth | Growth/no growth ([1]; Sample Concentration 0.313%): Growth | MIC ([2]; Example 35): 0.313% | Growth/no growth ([2]; Sample Concentration 0.039%): Growth | Growth/no growth ([2]; Sample Concentration 0.078%): Growth | Growth/no growth ([2]; Sample Concentration 0.156%): Growth | MIC ([3]; Example 35): 0.313% | Growth/no growth ([3]; Sample Concentration 0.039%): Growth | Growth/no growth ([3]; Sample Concentration 0.078%): Growth | Growth/no growth ([3]; Sample Concentration 0.156%): Growth | MIC ([4]; Example 35): 5% | Growth/no growth ([4]; Sample Concentration 0.039%): Growth | Growth/no growth ([4]; Sample Concentration 0.078%): Growth | Growth/no growth ([4]; Sample Concentration 0.156%): Growth | Growth/no growth ([4]; Sample Concentration 0.313%): Growth | Growth/no growth ([4]; Sample Concentration 0.625%): Growth | Growth/no growth ([4]; Sample Concentration 1.25%): Growth | Growth/no growth ([4]; Sample Concentration 2.5%): Growth | MIC ([5]; Example 35): 0.625% | Growth/no growth ([5]; Sample Concentration 0.039%): Growth | Growth/no growth ([5]; Sample Concentration 0.078%): Growth | Growth/no growth ([5]; Sample Concentration 0.156%): Growth | Growth/no growth ([5]; Sample Concentration 0.313%): Growth | MIC ([6]; Example 35): 0.625% | Growth/no growth ([6]; Sample Concentration 0.039%): Growth | Growth/no growth ([6]; Sample Concentration 0.078%): Growth | Growth/no growth ([6]; Sample Concentration 0.156%): Growth | Growth/no growth ([6]; Sample Concentration 0.313%): Growth | MIC ([7]; Example 35): 0.156% | Growth/no growth ([7]; Sample Concentration 0.039%): Growth | Growth/no growth ([7]; Sample Concentration 0.078%): Growth | MIC ([8]; Example 35): 0.625% | Growth/no growth ([8]; Sample Concentration 0.039%): Growth | Growth/no growth ([8]; Sample Concentration 0.078%): Growth | Growth/no growth ([8]; Sample Concentration 0.156%): Growth | Growth/no growth ([8]; Sample Concentration 0.313%): Growth | MIC ([9]; Example 35): 0.625% | Growth/no growth ([9]; Sample Concentration 0.039%): Growth | Growth/no growth ([9]; Sample Concentration 0.078%): Growth | Growth/no growth ([9]; Sample Concentration 0.156%): Growth | Growth/no growth ([9]; Sample Concentration 0.313%): Growth | MIC ([10]; Example 35): 0.625% | Growth/no growth ([10]; Sample Concentration 0.039%): Growth | Growth/no growth ([10]; Sample Concentration 0.078%): Growth | Growth/no growth ([10]; Sample Concentration 0.156%): Growth | MIC ([11]; Example 35): 0.313% | Growth/no growth ([11]; Sample Concentration 0.039%): Growth | Growth/no growth ([11]; Sample Concentration 0.078%): Growth | Growth/no growth ([11]; Sample Concentration 0.156%): Growth | MIC ([12]; Example 35): 0.625% | Growth/no growth ([12]; Sample Concentration 0.039%): Growth | Growth/no growth ([12]; Sample Concentration 0.078%): Growth | Growth/no growth ([12]; Sample Concentration 0.156%): Growth | Growth/no growth ([12]; Sample Concentration 0.313%): Growth | MIC ([13]; Example 35): 2.5% | Growth/no growth ([13]; Sample Concentration 0.039%): Growth | Growth/no growth ([13]; Sample Concentration 0.078%): Growth | Growth/no growth ([13]; Sample Concentration 0.156%): Growth | Growth/no growth ([13]; Sample Concentration 0.313%): Growth | Growth/no growth ([13]; Sample Concentration 0.625%): Growth | Growth/no growth ([13]; Sample Concentration 1.25%): Growth | MIC ([14]; Example 35): 1.25% | Growth/no growth ([14]; Sample Concentration 0.039%): Growth | Growth/no growth ([14]; Sample Concentration 0.078%): Growth | Growth/no growth ([14]; Sample Concentration 0.156%): Growth | Growth/no growth ([14]; Sample Concentration 0.313%): Growth | Growth/no growth ([14]; Sample Concentration 0.625%): Growth | MIC ([15]; Example 35): 0.313% | Growth/no growth ([15]; Sample Concentration 0.039%): Growth | Growth/no growth ([15]; Sample Concentration 0.078%): Growth | Growth/no growth ([15]; Sample Concentration 0.156%): Growth | MIC ([16]; Example 35): 1.25% | Growth/no growth ([16]; Sample Concentration 0.039%): Growth | Growth/no growth ([16]; Sample Concentration 0.078%): Growth | Growth/no growth ([16]; Sample Concentration 0.156%): Growth | Growth/no growth ([16]; Sample Concentration 0.313%): Growth | Growth/no growth ([16]; Sample Concentration 0.625%): Growth
